Columns and labels:
[1] = tested on: HIV-1 clinical isolated, characterised by mutations in the protease gene inducing geno-phenotypic resistance to SQV; experiment: p24 production susceptibility test (ACTG protocol), Table 8; format: cell-based; conditions: PBMC, ratio to HIV-IIIB
Excerpt: (§1) For the phenotype of the nucleosidic, non-nucleosidic and proteases inhibitors was utilised a method which consider the use of human PBMC and the protocol standardised by the AIDS Clinical Trials Group, after verifying the genotype by sequence analysis.
(§2) In order to assay in vitro the susceptibility to chloroquine and hydroxychloroquine of the viral strains, it was used the protocol of the ACTG which is characterised by the measure, of the production of antigen p24 in strongly infected cells.
(§3) The susceptibility of the viral strains to chemotherapics was determined in cell cultures, prepared in 96 wells microplates, using, for the infection, 0.1 MOI.
(§4) The supernatant of the infected cultures (either in absence or in presence of different concentrations of chemotherapic) were tested for the production of p24 after 7 days, using an ELISA test which is commercially available.
(§5) The concentrations of chloroquine and hydroxychloroquine tested ranged from 0.5 to 15 uM. At the same time non-infected cells were incubated with concentrations of chloroquine and hydroxychloroquine ranging from 0 to 50 uM to evaluate the toxicity of the compound.
(§6) After 4 day from the infection, half the cellular medium was replaced with a medium containing the corresponding dilution of chloroquine and hydroxychloroquine. The percentage of inhibition of the HIV replication, induced by chloroquine and hydroxychloroquine, was determined, after 7 day from the infection, comparing the levels of p24 of this cultures and that of the control, infected and not treated with chloroquine and hydroxychloroquine.
(§7) Therefore, the E.C.50 of chloroquine and hydroxychloroquine expresses the concentration of chemotherapic that inhibits the 50% of production of p24 and the values were calculated using linear and non linear regression analysis (the significativity for the non linear regression was R^2>0.95).
(§8) In the same experimental conditions and in the same day, but with similar concentrations of chloroquine and hydroxychloroquine, it was evaluated the vitality of the infect cell cultures, and this was expressed as I.C.50.
(§9) I.C.50 (Inhibitory Concentration) indicates the concentration of the chemotherapic agent inhibiting the vitality of the cell cultures at a rate of 50%, when there is not infection.

[2] = tested on: HIV-1 clinical isolated, characterised by mutations in the RT gene inducing geno-phenotypic resistance to d4T; experiment: p24 production susceptibility test (ACTG protocol), Table 4; format: cell-based; conditions: PBMC, ratio to HIV-IIIB
Excerpt: as §1, §2, §3, §4, §5, §6, §7, §8, §9

[3] = tested on: HIV-1 clinical isolated, characterised by mutations in the protease gene inducing geno-phenotypic resistance to IDV; experiment: p24 production susceptibility test (ACTG protocol), Table 9; format: cell-based; conditions: PBMC, ratio to HIV-IIIB
Excerpt: as §1, §2, §3, §4, §5, §6, §7, §8, §9

[4] = tested on: HIV-1 strains geno-phenotypically resistant to EFV; experiment: p24 production susceptibility test, Table 7, MT-2 cells; format: cell-based; conditions: MT-2, ratio to HIV-IIIB
Excerpt: as §1, §2, §3, §4, §5, §6, §7, §8, §9

[5] = tested on: HIV-1 strains geno-phenotypically resistant to EFV; experiment: as above; format: cell-based; conditions: ratio to HIV-IIIB
[6] = tested on: HIV-1 clinical isolated, characterised by mutations in the RT gene inducing geno-phenotypic resistance to ABC; experiment: p24 production susceptibility test (ACTG protocol), Table 5; format: cell-based; conditions: PBMC, ratio to HIV-IIIB
Excerpt: as §1, §2, §3, §4, §5, §6, §7, §8, §9

[7] = tested on: HIV-1 strains geno-phenotypically resistant to NVP; experiment: p24 production susceptibility test, Table 6, MT-2 cells; format: cell-based; conditions: MT-2, ratio to HIV-IIIB
Excerpt: as §1, §2, §3, §4, §5, §6, §7, §8, §9

[8] = tested on: HIV-1 strains geno-phenotypically resistant to NVP; experiment: as above; format: cell-based; conditions: ratio to HIV-IIIB
[9] = tested on: HIV-1 clinical isolated, characterised by mutations on the protease gene inducing geno-phenotypic resistance to NFV; experiment: p24 production susceptibility test (ACTG protocol), Table 10, PBMC; format: cell-based; conditions: ratio to HIV-IIIB
Excerpt: as §1, §2, §3, §4, §5, §6, §7, §8, §9

[10] = tested on: HIV-1 clinical isolated, characterised by mutations on the protease gene inducing geno-phenotypic resistance to NFV; experiment: p24 production susceptibility test, Table 10, H-9 cells; format: cell-based; conditions: H-9, ratio to HIV-IIIB
Excerpt: as §1, §2, §3, §4, §5, §6, §7, §8, §9

[11] = tested on: HIV clinical isolated, characterised by mutations in the RT gene inducing geno-phenotypic resistance to AZT; experiment: p24 production susceptibility test (ACTG protocol), Table 1; format: cell-based, HIV-1; conditions: PBMC, ratio to HIV-IIIB
Excerpt: as §1, §2, §3, §4, §5, §6, §7, §8, §9

[12] = tested on: HIV clinical isolated, characterised by mutations in the RT gene inducing geno-phenotypic resistance to ddI; experiment: p24 production susceptibility test (ACTG protocol), Table 2; format: cell-based, HIV-1; conditions: PBMC, ratio to HIV-IIIB
Excerpt: as §1, §2, §3, §4, §5, §6, §7, §8, §9

HIV = conditions: 16 weeks, cited from earlier work

CC(C)(C)NC(=O)[C@@H]1C[C@@H]2CCCC[C@@H]2CN1C[C@@H](O)[C@H](Cc1ccccc1)NC(=O)[C@H](CC(N)=O)NC(=O)c1ccc2ccccc2n1 [SQV, Saquinavir]
Fen. SQV (fold) ([1]; Gen. G48V I84V A74V L90M): 40X fold | Fen. SQV (fold) ([1]; Gen. G48V V82A): >80X fold | Fen. SQV (fold) ([1]; Gen. I84V L90M): >80X fold | Fen. SQV (fold) ([1]; Gen. M46I G48V L63P L90M): 20X fold | Fen. SQV (fold) ([1]; Gen. V82A L90M): 20X fold

Cc1cn([C@H]2C=C[C@@H](CO)O2)c(=O)[nH]c1=O [D4T, Stavudine]
Fen. D4T (fold) ([2]; Gen. K65R F77L Y115F Q151M M184V): 40X fold | Fen. D4T (fold) ([2]; Gen. K65R F116Y Q151M): 40X fold | Fen. D4T (fold) ([2]; Gen. M41I T69SSS T215Y): 10X fold | Fen. D4T (fold) ([2]; Gen. T69SSS T215Y): 10X fold | Fen. D4T (fold) ([2]; Gen. V75I F77L F116Y Q151M): 20X fold

CC(C)(C)NC(=O)[C@@H]1CN(Cc2cccnc2)CCN1C[C@@H](O)C[C@@H](Cc1ccccc1)C(=O)N[C@H]1c2ccccc2C[C@H]1O [IDV, Indinavir]
Fen. IDV (fold) ([3]; Gen. G48V V82A): >80X fold | Fen. IDV (fold) ([3]; Gen. I84V L90M): 20X fold | Fen. IDV (fold) ([3]; Gen. K20R E35D M36I I54V V82T): 10X fold | Fen. IDV (fold) ([3]; Gen. L10R M46I L63P V82T): 10X fold | Fen. IDV (fold) ([3]; Gen. V82F L90M): >80X fold

O=C1Nc2ccc(Cl)cc2[C@@](C#CC2CC2)(C(F)(F)F)O1 [EFV, Efavirenz]
Fen. EFV (fold) ([4]; Gen. K101D K103N): >80X fold | Fen. EFV (fold) ([4]; Gen. K103N Y181C): >80X fold | Fen. EFV (fold) ([4]; Gen. L100I K103N): >80X fold | Fen. EFV (fold) ([5]; Gen. K103N V108D): >80X fold | Fen. EFV (fold) ([5]; Gen. K103N): >80X fold | Fen. EFV (fold) ([5]; Gen. Y181C): 20X fold

Nc1nc(NC2CC2)c2ncn([C@H]3C=C[C@@H](CO)C3)c2n1 [ABC, Abacavir]
Fen. ABC (fold) ([6]; Gen. K65R L74V M184V): 10X fold | Fen. ABC (fold) ([6]; Gen. K65R S68G F77L Y115F Q151M M184V): 40X fold | Fen. ABC (fold) ([6]; Gen. L74V M184F): 10X fold | Fen. ABC (fold) ([6]; Gen. L74V Y115F M184V): 10X fold | Fen. ABC (fold) ([6]; Gen. M41L D67N M184V L210W T215Y): 10X fold

Cc1ccnc2c1NC(=O)c1cccnc1N2C1CC1 [NVP, Nevirapine]
Fen. NVP (fold) ([7]; Gen. G190E): >80X fold | Fen. NVP (fold) ([7]; Gen. V106A): >80X fold | Fen. NVP (fold) ([8]; Gen. K103N): >80X fold | Fen. NVP (fold) ([8]; Gen. Y181C): >80X fold

Cc1c(O)cccc1C(=O)N[C@@H](CSc1ccccc1)[C@H](O)CN1C[C@H]2CCCC[C@H]2C[C@H]1C(=O)NC(C)(C)C [NFV, Nelfinavir]
Fen. NFV (fold) ([9]; Gen. D30N A71V): 30X fold | Fen. NFV (fold) ([9]; Gen. D30N M46V A71V): 30X fold | Fen. NFV (fold) ([9]; Gen. G48V V92A): >80X fold | Fen. NFV (fold) ([9]; Gen. V82F L90M): >80X fold | Fen. NFV (fold) ([10]; Gen. D30N): 30X fold | Fen. NFV (fold) ([10]; Gen. V82A): 20X fold

Cc1cn([C@H]2C[C@H](N=[N+]=[N-])[C@@H](CO)O2)c(=O)[nH]c1=O [AZT, Zidovudine]
Fen AZT (fold) ([11]; Gen. D67N K70R T215F K219Q): 20X fold | Fen AZT (fold) ([11]; Gen. D 67 Ns K 70N T215F K219Q): >80X fold | Fen AZT (fold) ([11]; Gen. K70R T215F K219Q): 20X fold | Fen AZT (fold) ([11]; Gen. M41I M184V L210W R221K T215Y): 20X fold | Fen AZT (fold) ([11]; Gen. M41I T215Y): 40X fold | Fen AZT (fold) ([11]; Gen. M41L D67N K70RM 184V T215F): >80X fold | Fen AZT (fold) ([11]; Gen. M41LD 76N K70R T215Y): >80X fold | Fen. AZT (fold) ([12]; Gen D67N K70R M184V T215Y): 40X fold | Fen. AZT (fold) ([12]; Gen D67N K70R T215F K70R): >80X fold | Fen. AZT (fold) ([12]; Gen K70R T215F K219Q): 20X fold | Fen. AZT (fold) ([12]; Gen M4IL M184V L210W R211KL 214F T215Y): 20X fold | Fen. AZT (fold) ([12]; Gen M41I T215F): 40X fold | Fen. AZT (fold) ([12]; Gen M41L D67N K70R M184V T215Y): >80X fold | Fen. AZT (fold) ([12]; Gen M41L D67N K70R T215Y): >80X fold | negative events (HIV; hydroxychloroquine 800 mg/day, AZT 500 mg/day): no negative events were observed | patients with an increase of the plasmatic viremia at the end of the treatment (HIV; AZT 500 mg/day (n=37)): 8 patients

Source: patent US20040006103A1, “Use of chloroquine, hydroxychloroquine and 4 amino-quinolinic derivatives to obtain a drug for the anti retroviral therapy, active towards HIV sensitive strains and towards HIV strains which are resistant to both nucleosidic and non-nucleosidic reverse transcriptase inhibitors and to proteases …” (VALPHARMA S.A., priority 2002, published 2004)
